Experimental data reported in PubChem BioAssay (NCI).
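Each compound was tested at five concentrations against cells in 96-well plates for 48 hours. The concentration for 50% growth inhibition is given as GI50. TGI is the concentration that stops growth completely.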

Tests used:
Experiment in all cases: NCI-60 cell line screen, 48 h
[1] = test system: 786-0 renal
[2] = test system: A498 renal
[3] = test system: A549 NSCLC
[4] = test system: ACHN renal
[5] = test system: BT-549 breast
[6] = test system: CAKI-1 renal
[7] = test system: CCRF-CEM leukemia
[8] = test system: COLO 205 colon
[9] = test system: DU-145 prostate
[10] = test system: EKVX NSCLC
[11] = test system: HCC-2998 colon
[12] = test system: HCT-116 colon
[13] = test system: HCT-15 colon
[14] = test system: HL-60(TB) leukemia
[15] = test system: HOP-62 NSCLC
[16] = test system: HOP-92 NSCLC
[17] = test system: HS 578T breast
[18] = test system: HT29 colon
[19] = test system: IGROV1 ovarian
[20] = test system: K-562 leukemia
[21] = test system: KM12 colon
[22] = test system: LOX IMVI melanoma
[23] = test system: M14 melanoma
[24] = test system: MALME-3M melanoma
[25] = test system: MCF7 breast
[26] = test system: MDA-MB-231 breast
[27] = test system: MDA-MB-435
[28] = test system: MDA-MB-468 breast
[29] = test system: MOLT-4 leukemia
[30] = test system: NCI-H226 lung
[31] = test system: NCI-H23 lung
[32] = test system: NCI-H460 lung
[33] = test system: NCI-H522 lung
[34] = test system: NCI/ADR-RES ovarian
[35] = test system: OVCAR-3 ovarian
[36] = test system: OVCAR-4 ovarian
[37] = test system: OVCAR-5 ovarian
[38] = test system: OVCAR-8 ovarian
[39] = test system: PC-3 prostate
[40] = test system: RPMI-8226 leukemia
[41] = test system: RXF 393 renal
[42] = test system: SF-268 CNS
[43] = test system: SF-295 CNS
[44] = test system: SF-539 CNS
[45] = test system: SK-MEL-2 melanoma
[46] = test system: SK-MEL-28 melanoma
[47] = test system: SK-MEL-5 melanoma
[48] = test system: SK-OV-3 ovarian
[49] = test system: SN12C renal
[50] = test system: SNB-19 CNS
[51] = test system: SNB-75 CNS
[52] = test system: SR leukemia
[53] = test system: SW-620 colon
[54] = test system: T-47D breast
[55] = test system: TK-10 renal
[56] = test system: U251 CNS
[57] = test system: UACC-257 melanoma
[58] = test system: UACC-62 melanoma
[59] = test system: UO-31 renal

SMILES: Nc1nn2c(-c3cc4cc(Br)ccc4oc3=O)ccnc2c1N=Nc1ccccc1
- GI50 [1]: 2.01 µM
- TGI [1]: 4.71 µM
- GI50 [2]: 1.97 µM
- TGI [2]: 6.71 µM
- GI50 [3]: 3.42 µM
- TGI [3]: 29.3 µM
- GI50 [4]: 3.16 µM
- TGI [4]: 14.4 µM
- GI50 [5]: 1.92 µM
- TGI [5]: 3.77 µM
- GI50 [6]: 5.55 µM
- TGI [6]: 25.2 µM
- GI50 [7]: 24.6 µM
- TGI [7]: > 100 µM
- GI50 [8]: 23.2 µM
- TGI [8]: > 100 µM
- GI50 [9]: 4.71 µM
- TGI [9]: > 100 µM
- GI50 [10]: 3.29 µM
- TGI [10]: 18 µM
- GI50 [11]: 3.17 µM
- TGI [11]: 14.8 µM
- GI50 [12]: 2.23 µM
- TGI [12]: 4.73 µM
- GI50 [13]: 4.87 µM
- TGI [13]: > 100 µM
- GI50 [14]: > 100 µM
- TGI [14]: > 100 µM
- GI50 [15]: 1.84 µM
- TGI [15]: 4.23 µM
- GI50 [16]: 2.21 µM
- TGI [16]: 6.04 µM
- GI50 [17]: 3.11 µM
- TGI [17]: 17 µM
- GI50 [18]: 3.13 µM
- TGI [18]: 11.5 µM
- GI50 [19]: 4.57 µM
- TGI [19]: 33.9 µM
- GI50 [20]: 26.7 µM
- TGI [20]: > 100 µM
- GI50 [21]: 3.32 µM
- TGI [21]: > 100 µM
- GI50 [22]: 3.09 µM
- TGI [22]: 10.7 µM
- GI50 [23]: 16 µM
- TGI [23]: > 100 µM
- GI50 [24]: 2.72 µM
- TGI [24]: 10.9 µM
- GI50 [25]: 3.24 µM
- TGI [25]: 17.5 µM
- GI50 [26]: 1.99 µM
- TGI [26]: 4.43 µM
- GI50 [27]: 5.31 µM
- TGI [27]: > 100 µM
- GI50 [28]: 2.21 µM
- TGI [28]: 9.7 µM
- GI50 [29]: 31.8 µM
- TGI [29]: > 100 µM
- GI50 [30]: 2.16 µM
- TGI [30]: 5.84 µM
- GI50 [31]: 2.33 µM
- TGI [31]: 5.57 µM
- GI50 [32]: 1.95 µM
- TGI [32]: 5.05 µM
- GI50 [33]: 1.9 µM
- TGI [33]: 4.19 µM
- GI50 [34]: 2.07 µM
- TGI [34]: 4.54 µM
- GI50 [35]: 3.24 µM
- TGI [35]: 23.9 µM
- GI50 [36]: 2.89 µM
- TGI [36]: 15.3 µM
- GI50 [37]: 3.29 µM
- TGI [37]: 15.1 µM
- GI50 [38]: 2.24 µM
- TGI [38]: 5.36 µM
- GI50 [39]: 2.92 µM
- TGI [39]: 9.32 µM
- GI50 [40]: 31.6 µM
- TGI [40]: > 100 µM
- GI50 [41]: 1.99 µM
- TGI [41]: 4.95 µM
- GI50 [42]: 2.12 µM
- TGI [42]: 5.66 µM
- GI50 [43]: 2.1 µM
- TGI [43]: 4.88 µM
- GI50 [44]: 1.99 µM
- TGI [44]: 3.88 µM
- GI50 [45]: 3.96 µM
- TGI [45]: 19.8 µM
- GI50 [46]: 5.02 µM
- TGI [46]: 22.3 µM
- GI50 [47]: 2.71 µM
- TGI [47]: 8.1 µM
- GI50 [48]: 1.87 µM
- TGI [48]: 3.95 µM
- GI50 [49]: 1.91 µM
- TGI [49]: 4.92 µM
- GI50 [50]: 1.94 µM
- TGI [50]: 4.26 µM
- GI50 [51]: 1.29 µM
- TGI [51]: 3.18 µM
- GI50 [52]: 5.38 µM
- TGI [52]: > 100 µM
- GI50 [53]: 6.24 µM
- TGI [53]: > 100 µM
- GI50 [54]: 2.79 µM
- TGI [54]: 13.2 µM
- GI50 [55]: 12.7 µM
- TGI [55]: 37.2 µM
- GI50 [56]: 2.01 µM
- TGI [56]: 4.4 µM
- GI50 [57]: 11.8 µM
- TGI [57]: 40.9 µM
- GI50 [58]: 5.52 µM
- TGI [58]: 22.1 µM
- GI50 [59]: 11.1 µM
- TGI [59]: 86.6 µM

SMILES: C=C1CC[C@@H]2[C@]3(C)COC(c4cn[nH]c4-c4ccc(OC)cc4)O[C@@H]3CC[C@@]2(C)[C@@H]1C/C=C1/C(=O)OCC1O (stereo not given in full)
- GI50 [1]: 1.92 µM
- TGI [1]: 3.6 µM
- GI50 [2]: 17 µM
- TGI [2]: 50.5 µM
- GI50 [3]: 3.32 µM
- TGI [3]: 19.5 µM
- GI50 [4]: 3.52 µM
- TGI [4]: 14.1 µM
- GI50 [5]: 2.36 µM
- TGI [5]: 7.22 µM
- GI50 [6]: 2.96 µM
- TGI [6]: 12.1 µM
- GI50 [7]: 2.08 µM
- TGI [7]: 6.9 µM
- GI50 [8]: 1.95 µM
- TGI [8]: 3.73 µM
- GI50 [9]: 3.23 µM
- TGI [9]: 12.1 µM
- GI50 [10]: 2.66 µM
- TGI [10]: 10.5 µM
- GI50 [11]: 2.87 µM
- TGI [11]: 8.28 µM
- GI50 [12]: 1.86 µM
- TGI [12]: 3.57 µM
- GI50 [13]: 2.54 µM
- TGI [13]: 8.37 µM
- GI50 [14]: 2.69 µM
- TGI [14]: 14.7 µM
- GI50 [15]: 3.44 µM
- TGI [15]: 14.2 µM
- GI50 [16]: 2.02 µM
- TGI [16]: 5 µM
- GI50 [18]: 2.86 µM
- TGI [18]: 7.91 µM
- GI50 [19]: 3.98 µM
- TGI [19]: 20 µM
- GI50 [20]: 2.71 µM
- TGI [20]: > 100 µM
- GI50 [21]: 2.38 µM
- TGI [21]: 5.43 µM
- GI50 [22]: 1.73 µM
- TGI [22]: 3.42 µM
- GI50 [23]: 3.14 µM
- TGI [23]: 13.2 µM
- GI50 [24]: 1.74 µM
- TGI [24]: 3.64 µM
- GI50 [25]: 2.48 µM
- TGI [25]: 11.8 µM
- GI50 [26]: 2.39 µM
- TGI [26]: 5.48 µM
- GI50 [27]: 2.24 µM
- TGI [27]: 6.42 µM
- GI50 [28]: 2.17 µM
- TGI [28]: 5.6 µM
- GI50 [29]: 2.21 µM
- TGI [29]: > 100 µM
- GI50 [30]: 3.58 µM
- TGI [30]: 18.4 µM
- GI50 [31]: 2.51 µM
- TGI [31]: 7.69 µM
- GI50 [32]: 1.91 µM
- TGI [32]: 3.9 µM
- GI50 [33]: 2.49 µM
- TGI [33]: 7.81 µM
- GI50 [35]: 2.27 µM
- TGI [35]: 5.87 µM
- GI50 [36]: 2.96 µM
- TGI [36]: > 100 µM
- GI50 [37]: 3.9 µM
- TGI [37]: 13.4 µM
- GI50 [38]: 3.34 µM
- TGI [38]: > 100 µM
- GI50 [39]: 2.98 µM
- TGI [39]: > 100 µM
- GI50 [41]: 1.74 µM
- TGI [41]: 3.4 µM
- GI50 [42]: 3.25 µM
- TGI [42]: > 100 µM
- GI50 [43]: 2.13 µM
- TGI [43]: 4.77 µM
- GI50 [44]: 2.03 µM
- TGI [44]: 4.36 µM
- GI50 [45]: 3.97 µM
- TGI [45]: 17.8 µM
- GI50 [46]: 2.54 µM
- TGI [46]: 5.91 µM
- GI50 [47]: 1.52 µM
- TGI [47]: 2.95 µM
- GI50 [48]: 10.5 µM
- TGI [48]: 67.4 µM
- GI50 [49]: 3.54 µM
- TGI [49]: 16.5 µM
- GI50 [50]: 4.42 µM
- TGI [50]: 19.4 µM
- GI50 [51]: 1.75 µM
- TGI [51]: 5.86 µM
- GI50 [52]: 2.87 µM
- TGI [52]: > 100 µM
- GI50 [53]: 2.29 µM
- TGI [53]: 5.56 µM
- GI50 [54]: 3.25 µM
- TGI [54]: > 100 µM
- GI50 [55]: 4.12 µM
- TGI [55]: 16.7 µM
- GI50 [56]: 2.77 µM
- TGI [56]: 10.7 µM
- GI50 [57]: 2.46 µM
- TGI [57]: 8.92 µM
- GI50 [58]: 1.68 µM
- TGI [58]: 4.06 µM
- GI50 [59]: 1.7 µM
- TGI [59]: 3.91 µM
